Consider one molecule from paper PMC10117287 (RSC Advances, 2023).

The term inhibition denotes the change of the read-out against control, counted positive when it falls.

The assay deals with α-glucosidase (Saccharomyces cerevisiae, UniProt P53341). Kind of assay: α-glucosidase inhibitory activity. The assay is classed as biochemical.

Molecules are shown by their SMILES.

Chain of α-glucosidase (P53341 whole entry): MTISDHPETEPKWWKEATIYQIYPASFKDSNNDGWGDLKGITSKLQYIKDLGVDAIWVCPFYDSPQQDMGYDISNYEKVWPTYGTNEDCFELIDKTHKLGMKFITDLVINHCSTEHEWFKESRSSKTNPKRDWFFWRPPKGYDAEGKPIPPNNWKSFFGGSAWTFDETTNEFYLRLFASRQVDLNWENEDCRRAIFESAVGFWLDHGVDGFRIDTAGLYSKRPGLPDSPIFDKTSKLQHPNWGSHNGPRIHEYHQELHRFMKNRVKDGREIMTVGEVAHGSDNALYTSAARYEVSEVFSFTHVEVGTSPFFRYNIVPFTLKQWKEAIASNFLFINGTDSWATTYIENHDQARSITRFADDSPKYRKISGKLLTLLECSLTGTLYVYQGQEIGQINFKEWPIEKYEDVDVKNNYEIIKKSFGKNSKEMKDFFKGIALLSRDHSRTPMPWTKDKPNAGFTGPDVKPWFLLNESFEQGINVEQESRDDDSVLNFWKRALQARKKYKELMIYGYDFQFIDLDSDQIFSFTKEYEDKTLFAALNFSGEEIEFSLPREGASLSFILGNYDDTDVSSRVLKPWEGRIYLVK

`COc1cc(-c2nc(-c3ccccc3)c(-c3ccccc3)n2-c2ccc(O)cc2)ccc1O` [IMI-13]: the inhibition at 10 µM (pH 7, read-out: Inhibition (I%) 10 (μM)) is over 100%. Besides, the inhibition at 20 µM (pH 7, read-out: Inhibition (I%) 20 (μM)) worked out at 99.28 ± 0.51%. The inhibition at 30 µM (pH 7, read-out: Inhibition (I%) 30 (μM)) worked out at 95.2 ± 1%. For the same molecule, for the setting “pH 7, read-out: Inhibition (I%) 40 (μM)”, the inhibition at 40 µM was 81.9 ± 1.3%. For the same molecule, the inhibition at 50 µM (pH 7, read-out: Inhibition (I%) 50 (μM)) is 26 ± 1.2%.
